Here are results for 34 compounds from US9469615B2, “Quinoxalines and AZA-quinoxalines as CRTH2 receptor modulators” (Merck Sharp & Dohme Corp., priority 2010, dated 2016).

SMILES strings stand for the structures.

The test has as its target T1, hCRTH2 (Homo sapiens, UniProt Q9Y5Y4).
T1 construct: expressed in transfected cells; host or cells: HEK (human embryonic kidney) cells expressing hCRTH2; membrane preparation
T1 sequence (Q9Y5Y4 1-395): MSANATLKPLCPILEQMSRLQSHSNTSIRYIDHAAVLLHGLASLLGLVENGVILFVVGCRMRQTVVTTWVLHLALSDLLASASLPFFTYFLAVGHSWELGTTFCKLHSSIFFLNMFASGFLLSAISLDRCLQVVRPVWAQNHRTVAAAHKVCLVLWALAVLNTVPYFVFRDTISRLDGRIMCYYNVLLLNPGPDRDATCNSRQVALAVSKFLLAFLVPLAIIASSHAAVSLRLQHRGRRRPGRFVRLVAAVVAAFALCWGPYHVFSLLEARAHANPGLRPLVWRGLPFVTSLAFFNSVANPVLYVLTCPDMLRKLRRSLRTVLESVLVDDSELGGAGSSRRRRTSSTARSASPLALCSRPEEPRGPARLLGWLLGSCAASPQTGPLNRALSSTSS
Nature of the test: Radioligand binding assay ([3H]PGD2 competition, HEK-hCRTH2 membranes). The conditions noted are these: [3H]PGD2 binding. The procedure, abridged: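 Filter-bound radioactivity was counted by scintillation after 60 min incubations at room temperature. Membranes (8-20 μg) from HEK cells expressing hCRTH2 competed test ligands against 3.0 nM [3H]PGD2 in Tris-HCl pH 7.4 buffer with EDTA and 2 mM MnCl2; 10 μM PGD2 set non-specific binding.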

Under “rated A-E (Table A)”, `O=C(O)CCCCc1nc2cc(C(=O)NCc3ccccc3)ccc2nc1-c1ccc(Cl)cc1` [16G, 3-(4-chlorophenyl)-7-[[(phenylmethyl)amino]car-bonyl]-2-quinoxalinepentanoic acid] registered a Ki of 0.1 to 2 nM.

For `O=C(O)CCCCc1nc2cc(C(=O)N3CCC(c4ccccc4)C3)ccc2nc1-c1ccc(Cl)cc1` (stereo not shown) [16H, 3-(4-chlorophenyl)-7-[(3-phenyl-1-pyrrolidinyl)carbonyl]-2-quinoxalinepentanoic acid], where the note is “rated A-E (Table A)”, the Ki was 0.1 to 2 nM.

`O=C(O)CCCCc1nc2cc(C(=O)N3CCC(c4ccccc4)CC3)ccc2nc1-c1ccc(Cl)cc1` [16J, 3-(4-chlorophenyl)-7-[(4-phenyl-1-piperidinyl)carbonyl]-2-quinoxalinepentanoic acid] gave a Ki (rated A-E (Table A)) of 2.1 to 20 nM.

Regarding `N#Cc1ccc(CNC(=O)c2ccc3nc(-c4ccc(Cl)cc4)c(CCCCC(=O)O)nc3c2)cc1` [16K, 3-(4-chlorophenyl)-7-[[[(4-cyanophenyl)methyl]amino]carbonyl]-2-quinoxalinepentanoic acid], the Ki (rated A-E (Table A)) is 0.1 to 2 nM.

Regarding `O=C(O)CCCCc1nc2cc(C(=O)N3CC[C@H](c4ccccc4)C3)ccc2nc1-c1ccc(Cl)cc1` [16L, 3-(4-chlorophenyl)-7-[(3(R)-phenyl-1-pyrrolidinyl)carbonyl]-2-quinoxalinepentanoic acid], the inhibitory constant (Ki) (rated A-E (Table A)) lay in the range of 2.1 to 20 nM.

With `O=C(O)CCCCc1nc2cc(C(=O)N3CC[C@@H](c4ccccc4)C3)ccc2nc1-c1ccc(Cl)cc1` [16M, 3-(4-chlorophenyl)-7-[(3(S)-phenyl-1-pyrrolidinyl)carbonyl]-2-quinoxalinepentanoic acid], the Ki (rated A-E (Table A)) lay in the range of 0.1 to 2 nM.

Turning to `O=C(O)CCCCc1nc2cc(C(=O)N3CCC[C@H](c4ccccc4)C3)ccc2nc1-c1ccc(Cl)cc1` [16N, 3-(4-chlorophenyl)-7-[(3(R)-phenyl-1-piperidinyl)carbonyl]-2-quinoxalinepentanoic acid], the Ki (rated A-E (Table A)) fell in the range of 0.1 to 2 nM.

As for `O=C(O)CCCCc1nc2cc(C(=O)NCc3ccc(OC(F)(F)F)cc3)ccc2nc1-c1ccc(Cl)cc1` [16P, 3-(4-chlorophenyl)-7-[[[[4-(trifluoromethoxy)phenyl]methyl]amino]carbonyl]-2-quinoxalinepentanoic acid], the Ki (rated A-E (Table A)) was 0.1 to 2 nM.

With `O=C(O)CCCCc1nc2cc(C(=O)NCc3cc(Cl)cc(Cl)c3)ccc2nc1-c1ccc(Cl)cc1` [16Q, 3-(4-chlorophenyl)-7-[[[(3,5-dichlorophenyl)methyl]amino]carbonyl]-2-quinoxalinepentanoic acid], the Ki (rated A-E (Table A)) was 0.1 to 2 nM.

Take `O=C(O)CCCCc1nc2cc(C(=O)NCc3ccc(F)cc3)ccc2nc1-c1ccc(Cl)cc1` [16R, 3-(4-chlorophenyl)-7-[[[(4-fluorophenyl)methyl]amino]carbonyl]-2-quinoxalinepentanoic acid]: the Ki (rated A-E (Table A)) fell in the range of 0.1 to 2 nM.

As for `C[C@@H](NC(=O)c1ccc2nc(-c3ccc(Cl)cc3)c(CCCCC(=O)O)nc2c1)c1ccc(F)cc1` [16S, 3-(4-chlorophenyl)-7-[[[1(R)-(4-fluorophenyl)ethyl]amino]carbonyl]-2-quinoxalinepentanoic acid], the inhibition constant (Ki) reads like this: (rated A-E (Table A)) 0.1 to 2 nM; (values in text) 0.7 nM.

The compound `C[C@H](NC(=O)c1ccc2nc(-c3ccc(Cl)cc3)c(CCCCC(=O)O)nc2c1)c1ccc(F)cc1` [16T, 3-(4-chlorophenyl)-7-[[[1(S)-(4-fluorophenyl)ethyl]amino]carbonyl]-2-quinoxalinepentanoic acid] showed an inhibitory constant (Ki) (rated A-E (Table A)) of 0.1 to 2 nM.

Take `O=C(O)CCCCc1nc2cc(C(=O)NCc3ccc(C(F)(F)F)cc3)ccc2nc1-c1ccc(Cl)cc1` [16U, 3-(4-chlorophenyl)-7-[[[[4-(trifluoromethyl)phenyl]methyl]amino]carbonyl]-2-quinoxalinepentanoic acid]: where the note is “rated A-E (Table A)”, the Ki was 0.1 to 2 nM.

Regarding `O=C(O)CCCCc1nc2cc(C(=O)N[C@H](c3ccc(Cl)cc3)C(F)(F)F)ccc2nc1-c1ccc(Cl)cc1` [16V, 3-(4-chlorophenyl)-7-[[[1(R)-(4-chlorophenyl)-2,2,2-trifluoroethyl]amino]carbonyl]-2-quinoxalinepentanoic acid], the Ki is 0.1 to 2 nM (rated A-E (Table A)) and 2.7 nM (values in text).

With `O=C(O)CCCCc1nc2cc(C(=O)N[C@@H](c3ccc(Cl)cc3)C(F)(F)F)ccc2nc1-c1ccc(Cl)cc1` [16W], the Ki reads like this: (rated A-E (Table A)) 0.1 to 2 nM; (values in text) 0.4 nM.

Compound `O=C(O)CCCCc1nc2cc(C(=O)N[C@@H](c3ccc(F)cc3)C(F)(F)F)ccc2nc1-c1ccc(Cl)cc1` [16Y, 3-(4-chlorophenyl)-7-[[[2,2,2-trifluoro-1(S)-(4-fluorophenyl)ethyl]amino]carbonyl]-2-quinoxalinepentanoic acid] yielded an inhibition constant (Ki) (rated A-E (Table A)) of 0.1 to 2 nM.

For the setting “rated A-E (Table A)”, `C[C@H](NC(=O)c1ccc2nc(-c3ccc(Cl)cc3)c(CCCCC(=O)O)nc2c1)c1ccccn1` [16Z, 3-(4-chlorophenyl)-7-[[[1(S)-(2-pyridinyl)ethyl]amino]carbonyl]-2-quinoxalinepentanoic acid] came in with a Ki of 2.1 to 20 nM.

For the compound `O=C(O)CCCCc1nc2cc(C(=O)N[C@@H](c3ccccc3)C(F)(F)F)ccc2nc1-c1ccc(Cl)cc1` [16i, 3-(4-chlorophenyl)-7-[[(2,2,2-trifluoro-1(s)-phenylethyl)amino]carbonyl]-2-quinoxalinepentanoic acid], the Ki (rated A-E (Table A)) lay in the range of 0.1 to 2 nM.

`O=C(O)CCCCc1nc2cc(C(=O)N3CCC[C@@H](c4ccccc4)C3)ccc2nc1-c1ccc(Cl)cc1` [16o, 3-(4-chlorophenyl)-7-[(3(S)-phenyl-1-piperidinyl)carbonyl]-2-quinoxalinepentanoic acid]: the inhibition constant Ki (rated A-E (Table A)) lay within 0.1 to 2 nM.

`CC(CCc1nc2cc(C(=O)N[C@@H](C)c3ccc(Cl)cc3)ccc2nc1-c1ccc(Cl)cc1)CC(=O)O` (stereo partly shown) [17D]: where the note is “rated A-E (Table A)”, the Ki was 0.1 to 2 nM.

As to `CC(CCc1nc2cc(C(=O)N[C@H](C)c3ccc(Cl)cc3)ccc2nc1-c1ccc(Cl)cc1)CC(=O)O` (stereo partly drawn) [17E, 3-(4-chlorophenyl)-7-[[[1(R)-(4-chlorophenyl)ethyl]amino]carbonyl]-beta-methyl-2-quinoxalinepentanoic acid], the inhibitory constant (Ki) (rated A-E (Table A)) fell in the range of 2.1 to 20 nM.

Regarding `CC(CCc1nc2cc(C(=O)N3CC(c4ccccc4)C3)ccc2nc1-c1ccc(Cl)cc1)CC(=O)O` (stereo not drawn) [17F, 3-(4-chlorophenyl)-beta-methyl-7-[(3-phenyl-1-azetidinyl)carbonyl]-2-quinoxalinepentanoic acid], the Ki (rated A-E (Table A)) lay within 0.1 to 2 nM.

Turning to `CC(CCc1nc2cc(C(=O)N[C@H](c3ccc(F)cc3)C(F)(F)F)ccc2nc1-c1ccc(Cl)cc1)CC(=O)O` (stereo partly shown) [17G], for the setting “rated A-E (Table A)”, the inhibition constant Ki is 2.1 to 20 nM.

Turning to `COc1ccc(CNC(=O)c2ccc3nc(-c4ccc(Cl)cc4)c(CCC(C)CC(=O)O)nc3c2)cc1` (stereo not shown) [17H], the Ki (rated A-E (Table A)) lay in the range of 2.1 to 20 nM.

Consider `CC(CCc1nc2cc(C(=O)N3CCC[C@H](c4ccccc4)C3)ccc2nc1-c1ccc(Cl)cc1)CC(=O)O` (stereo partly drawn) [17J, 3-(4-chlorophenyl)-beta-methyl-7-[(3(R)-phenyl-1-piperidinyl)carbonyl]-2-quinoxalinepentanoic acid], for which, for the setting “rated A-E (Table A)”, the inhibitory constant (Ki) lay in the range of 2.1 to 20 nM.

Take `CC(CCc1nc2cc(C(=O)N3CC[C@@H](c4ccccc4)C3)ccc2nc1-c1ccc(Cl)cc1)CC(=O)O` (stereo partly drawn) [17K, 3-(4-chlorophenyl)-beta-methyl-7-[(3(S)-phenyl-1-pyrrolidinyl)carbonyl]-2-quinoxalinepentanoic acid]: the Ki (rated A-E (Table A)) fell in the range of 0.1 to 2 nM.

On to `CC(CCc1nc2cc(C(=O)N3CC[C@H](c4ccccc4)C3)ccc2nc1-c1ccc(Cl)cc1)CC(=O)O` (stereo partly drawn) [17L, 3-(4-chlorophenyl)-beta-methyl-7-[(3(R)-phenyl-1-pyrrolidinyl)carbonyl]-2-quinoxalinepentanoic acid], for which, where the note is “rated A-E (Table A)”, the Ki fell in the range of 2.1 to 20 nM.

For `CC(CCc1nc2cc(C(=O)N[C@@H](c3ccccc3)C(F)(F)F)ccc2nc1-c1ccc(Cl)cc1)CC(=O)O` (stereo partly drawn) [17M, 3-(4-chlorophenyl)-beta-methyl-7-[[[2,2,2-trifluoro-(1S)-phenylethyl]amino]carbonyl]-2-quinoxaline pentanoic acid], under “rated A-E (Table A)”, the Ki lay within 2.1 to 20 nM.

On to `CC(CCc1nc2cc(C(=O)N[C@H](c3ccccc3)C(F)(F)F)ccc2nc1-c1ccc(Cl)cc1)CC(=O)O` (stereo partly drawn) [17N, 3-(4-chlorophenyl)-beta-methyl-7-[[(2,2,2-trifluoro-1(R)-phenylethyl)amino]carbonyl]-2-quinoxalinepentanoic acid], for which, under “rated A-E (Table A)”, the inhibition constant Ki is 2.1 to 20 nM.

The compound `COc1ccc([C@H](C)NC(=O)c2ccc3nc(-c4ccc(Cl)cc4)c(CCC(C)CC(=O)O)nc3c2)cc1` (stereo partly drawn) [17P, 3-(4-chlorophenyl)-7-[[[1(S)-(4-methoxyphenyl)ethyl]amino]carbonyl]-beta-methyl-2-quinoxaline pentanoic acid] gave a Ki (rated A-E (Table A)) of 2.1 to 20 nM.

Compound `CC(CCc1nc2cc(C(=O)NCc3cccc(Cl)c3)ccc2nc1-c1ccc(C(F)(F)F)cc1)CC(=O)O` (stereo not drawn) [17Q, 7-[[[(3-chlorophenyl)methyl]amino]carbonyl]-beta-methyl-3-[4-(trifluoromethyl)phenyl]-2-quinoxalinepentanoic acid] showed a Ki (rated A-E (Table A)) of 2.1 to 20 nM.

In the case of `CC(CCc1nc2cc(C(=O)N3CCC(c4ccccc4)CC3)ccc2nc1-c1ccc(C(F)(F)F)cc1)CC(=O)O` (stereo not shown) [17R], the Ki (rated A-E (Table A)) was in the range of 0.1 to 2 nM.

Take `CC(CCc1nc2cc(C(=O)N[C@@H](c3ccccc3)C(F)(F)F)ccc2nc1-c1ccc(C(F)(F)F)cc1)CC(=O)O` (stereo partly shown) [17S]: for the setting “rated A-E (Table A)”, the Ki is 2.1 to 20 nM.

`CC(CCc1nc2cc(C(=O)NC3Cc4ccccc4C3)ccc2nc1-c1ccc(C(F)(F)F)cc1)CC(=O)O` (stereo not drawn) [17T, 7-[[(2,3-dihydro-1H-inden-2-yl)amino]carbonyl]-beta-methyl-3-[4-(trifluoromethyl)phenyl]-2-quinoxalinepentanoic acid] showed an inhibitory constant (Ki) (rated A-E (Table A)) of 0.1 to 2 nM.

What is called Ki is the equilibrium dissociation constant of an inhibitor or competing ligand from its target. A higher Ki goes with weaker binding.
